What was measured:
DGK α kinase = biological target: T1, DGK α kinase (Homo sapiens, UniProt P23743); assay: DGKalpha kinase ADP Glo assay run by Reaction Biology Corp.; type: biochemical; details: 2 nM kinase, 50 µM ATP, 500 μM DLG, 10-dose duplicate
T1 construct: purchased Reaction Biology Corp. (contract assay service)

MV-3 cells = assay: T-cell - TCB - MV3 killing assay; type: cell-based, human; details: for Emax: Homo sapiens, MV-3, 120 h, % TCL normalized: MCSP-TCB only = neutral control, 20 μM reference compound A1 = 100%, read-out: MSCP TCB killing MV-3 cells 5 d Emax (%); for EC50: primary human T-cells + MV-3 RFP cells, MCSP-TCB 1.5 pM-5 pM, 120 hours imaging, read-out: MSCP TCB killing MV-3 cells 5 d EC50
Procedure: All culturing steps are executed at 5% CO2, 37° C. and 95% humidity. MV-3 RFP cells are cultured in MV-3 medium (DMEM+10% FBS, 1× PenStrep and 0.5 μg/mL Puromycin) for at least 3 weeks. Cultured MV-3 cells at 80% confluency are washed once with PBS−− and trypsinized until detached. […] Cells are seeded with 100 μL/well into a 96-well plate (TTP, #92696), and placed for 40 minutes without moving at room temperature in order to achieve evenly distributed attachment of cells. Plates are then incubated until further use.
On the next day, expanded primary human T-cells are thawed and resuspended in T-cell medium to 4*10^6 cells/mL. For 3 hours, they are cultured in a 6-well plate with 6 mL per well at maximum. After culturing the T-cells, they are filtered through a cell strainer (Miltenyi Biotech, #130-041-407), counted again, and cell concentration is adjusted to 2*10^6 cells/mL.
MCSP-TCB or PBS are pre-diluted in T-cell medium (concentration depending on T-cell donor), 4 times more concentrated than the end-concentration. 60 μL/well of pre-dilutions are then distributed into a round bottom plate (Costar, #3799) according to plate layout. Compounds are added in a 9 pt dose response with the Tecan D300e Digital Dispenser, as well 4 times more concentrated than the end-concentration. DMSO concentration of all wells is adjusted to 0.8%, resulting in 0.2% as final concentration.
60 μL per well of T-cell suspension are added to the prepared round bottom plate and resuspended with a manual multichannel. 100 μL/well of the resuspended T-cell suspension including treatments are then transferred cautiously to the over-night cultured MV-3 cells according to plate layout. 100 μL T-cell medium only is added to the outer MV-3 wells only. Final compound DR is starting at 20 μM with a dilution factor of 3.333. Final TCB concentration is between 1.5 pM to 5 pM and was determined for each T-cell donor individually by running TCB titrations. For each donor, a TCB concentration was chosen which corresponds to 10-20% MV3 baseline cell killing in the absence of compound treatment. Positive control is the reference compound A1 which is added in a DR, as well as additional wells with only 20 μM. 20 μM of reference compound A1 represent the positive stimulator control, TCB only (DMSO wells) the neutral control.
After transfer of T-cells with treatment pre-dilutions, MV-3 cells are imaged by time-lapse microscopy using IncucyteZOOM™ (Essen BioScience, MI, USA). Imaging is performed every 3 hours for a total of 120 hours (10× objective, phase and red image channels, acquisition time 400 ms, Green/Red 4614 optical module). RFP object count per well is analysed in the IncucyteZOOM™ Software (Version 2019B Rev2) with a mask that was previously created and optimized for MV-3 cells. Raw data is exported as object count/well and values are normalized as % TCL compared to wells with MV-3 only, representing 100% growth and therefore 0% TCL.
Calculated % TCL values are analysed in Genedata Screener using Roche Normalization PCT_POS_CTRL with MCSP-TCB only set as Neutral Control and 20 μM of the reference compound A1 set as Stimulator Control/100%.
Induced TCL by compounds without TCB treatment or toxicity (observed in the PBS condition) were be flagged.

T1 sequence (P23743 whole entry): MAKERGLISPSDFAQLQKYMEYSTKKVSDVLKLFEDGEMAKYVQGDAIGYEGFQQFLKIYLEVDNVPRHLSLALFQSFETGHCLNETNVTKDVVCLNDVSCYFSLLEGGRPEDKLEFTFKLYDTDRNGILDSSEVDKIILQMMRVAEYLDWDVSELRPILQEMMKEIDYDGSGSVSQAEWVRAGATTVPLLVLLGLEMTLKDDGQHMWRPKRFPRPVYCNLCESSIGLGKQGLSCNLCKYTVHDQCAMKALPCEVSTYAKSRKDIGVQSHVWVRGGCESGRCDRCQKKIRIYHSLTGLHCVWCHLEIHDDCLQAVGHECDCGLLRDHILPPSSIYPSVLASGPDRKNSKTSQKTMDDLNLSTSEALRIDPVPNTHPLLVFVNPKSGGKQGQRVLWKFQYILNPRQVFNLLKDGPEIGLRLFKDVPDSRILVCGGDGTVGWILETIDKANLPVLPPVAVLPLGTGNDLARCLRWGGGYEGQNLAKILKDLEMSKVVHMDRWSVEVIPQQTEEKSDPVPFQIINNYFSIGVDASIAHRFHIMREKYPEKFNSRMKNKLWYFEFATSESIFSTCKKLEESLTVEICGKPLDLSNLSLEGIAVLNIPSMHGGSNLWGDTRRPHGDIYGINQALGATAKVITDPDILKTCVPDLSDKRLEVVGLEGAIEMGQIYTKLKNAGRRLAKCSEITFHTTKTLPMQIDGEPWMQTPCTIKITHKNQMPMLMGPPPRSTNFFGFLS

SMILES: Cc1noc(-c2ccc(CN3C(=O)[C@@H](N)CS(=O)(=O)c4ccc(-c5nnc(C(C)(C)C)o5)cc43)cc2)n1 [Example 20, (3R)-3-amino-7-(5-tert-butyl-1,3,4-oxadiazol-2-yl)-5-[[4-(3-methyl-1,2,4-oxadiazol-5-yl)phenyl]methyl]-1,1-dioxo-2,3-dihydro-1λ^6,5-benzothiazepin-4-one]
- IC50 (DGK α kinase): 1410 nM

SMILES: CC(C)(C#N)c1nnc(-c2ccc3c(c2)N(Cc2ccc(-c4ccc(C(F)(F)F)cn4)cc2)C(=O)[C@@H](N)CS3(=O)=O)o1 [Example 47]
- Emax (MV-3 cells): 103%
- EC50 (MV-3 cells): 280 nM
- IC50 (DGK α kinase): 238 nM

SMILES: C[C@@](N)(c1nnc(-c2ccc3c(c2)N(Cc2ccc(-c4noc(C(F)(F)F)n4)cc2)C(=O)[C@@H](N)CS3(=O)=O)o1)C(F)(F)F [Example 52, (3R)-3-amino-7-[5-[(1R)-1-amino-2,2,2-trifluoro-1-methyl-ethyl]-1,3,4-oxadiazol-2-yl]-1,1-dioxo-5-[[4-[5-(trifluoromethyl)-1,2,4-oxadiazol-3-yl]phenyl]methyl]-2,3-dihydro-1λ^6,5-benzothiazepin-4-one]
- Emax (MV-3 cells): 95%
- EC50 (MV-3 cells): 52 nM
- IC50 (DGK α kinase): 63.6 nM

SMILES: C[C@](N)(c1nnc(-c2ccc3c(c2)N(Cc2ccc(-c4noc(C(F)(F)F)n4)cc2)C(=O)[C@@H](N)CS3(=O)=O)o1)C(F)(F)F [Example 53, (3R)-3-amino-7-[5-[(1S)-1-amino-2,2,2-trifluoro-1-methyl-ethyl]-1,3,4-oxadiazol-2-yl]-1,1-dioxo-5-[[4-[5-(trifluoromethyl)-1,2,4-oxadiazol-3-yl]phenyl]methyl]-2,3-dihydro-1λ^6,5-benzothiazepin-4-one]
- Emax (MV-3 cells): 98%
- EC50 (MV-3 cells): 137 nM
- IC50 (DGK α kinase): 160 nM

SMILES: N[C@H]1CS(=O)(=O)c2ccc(-c3nnc(N4CCOC(F)(F)C4)o3)cc2N(Cc2ccc(-c3noc(C(F)(F)F)n3)cc2)C1=O [Example 78, (3R)-3-amino-7-[5-(2,2-difluoromorpholin-4-yl)-1,3,4-oxadiazol-2-yl]-1,1-dioxo-5-[[4-[5-(trifluoromethyl)-1,2,4-oxadiazol-3-yl]phenyl]methyl]-2,3-dihydro-1λ^6,5-benzothiazepin-4-one]
- Emax (MV-3 cells): 112%
- EC50 (MV-3 cells): 93 nM
- IC50 (DGK α kinase): 105 nM

SMILES: COc1ccc(-c2ccc(CN3C(=O)[C@@H](N)CS(=O)(=O)c4ccc(-c5nnc(N(C)CC(F)(F)F)o5)cc43)cc2)cc1 [Example 81, (3R)-3-amino-5-[[4-(4-methoxyphenyl)phenyl]methyl]-7-[5-[methyl(2,2,2-trifluoroethyl)amino]-1,3,4-oxadiazol-2-yl]-1,1-dioxo-2,3-dihydro-1λ^6,5-benzothiazepin-4-one]
- Emax (MV-3 cells): 98%
- EC50 (MV-3 cells): 343 nM
- IC50 (DGK α kinase): 226 nM

SMILES: CC(C)(C)c1nnc(-c2ccc3c(c2)N(Cc2ccc(-n4cnc(C(F)(F)F)n4)cc2)C(=O)[C@@H](N)CS3(=O)=O)o1 [Example 91, (3R)-3-amino-7-(5-tert-butyl-1,3,4-oxadiazol-2-yl)-1,1-dioxo-5-[[4-[3-(trifluoromethyl)-1,2,4-triazol-1-yl]phenyl]methyl]-2,3-dihydro-126,5-benzothiazepin-4-one]
- Emax (MV-3 cells): 96%
- EC50 (MV-3 cells): 237 nM

SMILES: CC(C)(C#N)c1nnc(-c2ccc3c(c2)N(Cc2ccc(-n4ccc(C(F)(F)F)n4)cc2)C(=O)[C@@H](N)CS3(=O)=O)o1 [Example 121, 2-[5-[(3R)-3-amino-1,1,4-trioxo-5-[[4-[3-(trifluoromethyl)pyrazol-1-yl]phenyl]methyl]-2,3-dihydro-1λ^6,5-benzothiazepin-7-yl]-1,3,4-oxadiazol-2-yl]-2-methyl-propanenitrile]
- Emax (MV-3 cells): 98%
- EC50 (MV-3 cells): 109 nM

SMILES: CC(C)(C#N)c1nnc(-c2ccc3c(c2)N(Cc2ccc(-c4ccc(OC(F)(F)F)cn4)cc2)C(=O)[C@@H](N)CS3(=O)=O)o1 [Example 124]
- Emax (MV-3 cells): 100%
- EC50 (MV-3 cells): 23 nM
- IC50 (DGK α kinase): 23.3 nM

SMILES: C[C@@](N)(c1nnc(-c2ccc3c(c2)N(Cc2ccc(-n4ccc(C(F)(F)F)n4)cc2)C(=O)[C@@H](N)CS3(=O)=O)o1)C(F)(F)F [Example 157, (3R)-3-amino-7-[5-[(1R)-1-amino-2,2,2-trifluoro-1-methyl-ethyl]-1,3,4-oxadiazol-2-yl]-1,1-dioxo-5-[[4-[3-(trifluoromethyl)pyrazol-1-yl]phenyl]methyl]-2,3-dihydro-1λ^6,5-benzothiazepin-4-one]
- Emax (MV-3 cells): 100%
- EC50 (MV-3 cells): 119 nM

SMILES: COC(=O)N1CC2CC(c3nnc(-c4ccc5c(c4)N(Cc4ccc(-c6ccc(C(F)(F)F)cn6)cc4)C(=O)[C@@H](N)CS5(=O)=O)o3)(C2)C1 [Example 159, methyl 1-[5-[(3R)-3-amino-1,1,4-trioxo-5-[[4-[5-(trifluoromethyl)-2-pyridyl]phenyl]methyl]-2,3-dihydro-1λ^6,5-benzothiazepin-7-yl]-1,3,4-oxadiazol-2-yl]-3-azabicyclo[3.1.1]heptane-3-carboxylate]
- Emax (MV-3 cells): 102%
- EC50 (MV-3 cells): 166 nM

SMILES: CC(C)(c1nnc(-c2ccc3c(c2)N(Cc2ccc(-c4noc(C(F)(F)F)n4)cc2)C(=O)[C@@H](N)CS3(=O)=O)o1)C(F)(F)F [Example 166]
- Emax (MV-3 cells): 102%
- EC50 (MV-3 cells): 10 nM
